Data on twelve molecules can be found in patent publication US9475809B2, “Substituted oxopyridine derivatives and use thereof as factor xia/plasma” (BAYER PHARMA AKTIENGESELLSCHAFT, priority 2013, dated 2016).

human factor XIa, sequence (P03951 388-625): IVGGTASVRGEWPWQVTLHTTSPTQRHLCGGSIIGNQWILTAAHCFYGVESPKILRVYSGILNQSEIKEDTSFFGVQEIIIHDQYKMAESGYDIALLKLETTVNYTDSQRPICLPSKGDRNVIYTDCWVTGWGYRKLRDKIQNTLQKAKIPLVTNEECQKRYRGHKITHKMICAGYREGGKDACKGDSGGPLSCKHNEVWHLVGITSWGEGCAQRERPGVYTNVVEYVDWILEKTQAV
human factor XIa, sequence (P03951 19-387 partner): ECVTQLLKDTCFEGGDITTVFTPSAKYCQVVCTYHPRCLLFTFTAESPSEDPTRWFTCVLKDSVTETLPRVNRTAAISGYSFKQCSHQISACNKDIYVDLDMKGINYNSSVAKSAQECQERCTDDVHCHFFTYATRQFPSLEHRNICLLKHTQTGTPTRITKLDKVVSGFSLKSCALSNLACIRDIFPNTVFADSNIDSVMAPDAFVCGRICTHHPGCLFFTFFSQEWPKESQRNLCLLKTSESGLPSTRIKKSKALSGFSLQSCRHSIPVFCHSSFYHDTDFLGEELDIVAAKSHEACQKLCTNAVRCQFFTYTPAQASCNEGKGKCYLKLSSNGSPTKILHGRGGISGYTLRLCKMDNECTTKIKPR

The target in the assay is human factor XIa (Homo sapiens (Human), UniProt P03951). Description: Measurement of FXIa inhibition (fluorogenic peptide substrate). It counts as biochemical. The following applies: factor XIa from Kordia 0.45 nM; substrate Boc-Glu(OBzl)-Ala-Arg-AMC; 30 min at 22° C. The method, then:
a.1) Measurement of FXIa Inhibition
The factor XIa inhibition of the inventive substances is determined using a biochemical test system which utilizes the reaction of a peptidic factor XIa substrate to determine the enzymatic activity of human factor XIa. Here, factor XIa cleaves from the peptic factor XIa substrate the C-terminal aminomethylcoumarin (AMC), the fluorescence of which is measured. The determinations are carried out in microtitre plates.
In each case 1 μl of the diluted substance solutions is placed into the wells of white microtitre plates from Greiner (384 wells). […] After 15 min of incubation, the enzyme reaction is started by addition of 20 μl of the factor XIa substrate Boc-Glu(OBzl)-Ala-Arg-AMC dissolved in assay buffer (10 μM in assay buffer) from Bachem, the mixture is incubated at room temperature (22° C.) for 30 min and fluorescence is then measured (excitation: 360 nm, emission: 460 nm). The measured emissions of the test batches with test substance are compared to those of control batches without test substance (only dimethyl sulphoxide instead of test substance in dimethyl sulphoxide), and IC50 values are calculated from the concentration/activity relationships.
Consider `CN1Cc2c(c(-c3cc(Cl)ccc3Cl)cc(=O)n2CC(=O)Nc2ccc(-c3nnn[nH]3)cc2)C1=O` [Example 2, 2-[4-(2,5-Dichlorophenyl)-6-methyl-2,5-dioxo-2,5,6,7-tetrahydro-1H-pyrrolo[3,4-b]pyridin-1-yl]-N-[4-(1H-tetrazol-5-yl)phenyl]acetamide], for which half-maximal inhibition (IC50) was put at 340 nM. As for `O=C(Cn1c2c(c(-c3cc(Cl)ccc3Cl)cc1=O)C(=O)CC2)Nc1ccc(C(=O)O)cc1` [Example 4, 4-({[4-(2,5-Dichlorophenyl)-2,5-dioxo-2,5,6,7-tetrahydro-1H-cyclopenta[b]pyridin-1-yl]acetyl}amino)benzoic acid], the IC50 (as a rule, the concentration that inhibits the measured activity by half) is 420 nM. For the molecule `O=C(Cn1c2c(c(-c3cc(Cl)ccc3Br)cc1=O)C(=O)CC2)Nc1ccc(-c2nnn[nH]2)cc1` [Example 9, 2-[4-(2-Bromo-5-chlorophenyl)-2,5-dioxo-2,5,6,7-tetrahydro-1H-cyclopenta[b]pyridin-1-yl]-N-[4-(1H-tetrazol-5-yl)phenyl]acetamide], 170 nM corresponded to half-maximal inhibition (IC50). The result for `O=C(Cn1c2c(c(-c3cc(Cl)ccc3Cl)cc1=O)C(=O)CC2)Nc1ccc(-c2nc(C(F)(F)F)n[nH]2)cc1` [Example 6, 2-[4-(2,5-Dichlorophenyl)-2,5-dioxo-2,5,6,7-tetrahydro-1H-cyclopenta[b]pyridin-1-yl]-N-{4-[3-(trifluoromethyl)-1H-1,2,4-triazol-5-yl]phenyl}acetamide] reads 550 nM; that for `O=C(Cn1c2c(c(-c3cc(Cl)ccc3Cl)cc1=O)C(=O)CC2)Nc1ccc(-c2cnc[nH]2)cc1` [Example 8, 2-[4-(2,5-Dichlorophenyl)-2,5-dioxo-2,5,6,7-tetrahydro-1H-cyclopenta[b]pyridin-1-yl]-N-[4-(1H-imidazol-5-yl)phenyl]acetamide], 470 nM; that for `O=C(Cn1c2c(c(-c3cc(Cl)ccc3Br)cc1=O)C(=O)CC2)Nc1ccc(-c2noc(=O)[nH]2)cc1` [Example 10, 2-[4-(2-Bromo-5-chlorophenyl)-2,5-dioxo-2,5,6,7-tetrahydro-1H-cyclopenta[b]pyridin-1-yl]-N-[4-(5-oxo-4,5-dihydro-1,2,4-oxadiazol-3-yl)phenyl]acetamide], 190 nM. Turning to `N#Cc1ccc(Cl)cc1-c1cc(=O)n(CC(=O)Nc2ccc(-c3noc(=O)[nH]3)cc2)c2c1C(=O)CCC2` [Example 16, 2-[4-(5-Chloro-2-cyanophenyl)-2,5-dioxo-5,6,7,8-tetrahydroquinolin-1(2H)-yl]-N-[4-(5-oxo-4,5-dihydro-1,2,4-oxadiazol-3-yl)phenyl]acetamide], the half-inhibitory concentration (IC50) worked out at 77 nM. In turn, `O=C(Cn1c2c(c(-c3cc(Cl)ccc3Cl)cc1=O)C(=O)CC2)Nc1ccc(-c2nnn[nH]2)cc1` [Example 3, 2-[4-(2,5-Dichlorophenyl)-2,5-dioxo-2,5,6,7-tetrahydro-1H-cyclopenta[b]pyridin-1-yl]-N-[4-(1H-tetrazol-5-yl)phenyl]acetamide] yielded an IC50 of 230 nM. `N#Cc1ccc(Cl)cc1-c1cc(=O)n(CC(=O)Nc2ccc(-c3cc(=O)[nH][nH]3)cc2)c2c1C(=O)CC2` [Example 14, 2-[4-(5-Chloro-2-cyanophenyl)-2,5-dioxo-2,5,6,7-tetrahydro-1H-cyclopenta[b]pyridin-1-yl]-N-[4-(5-oxo-2,5-dihydro-1H-pyrazol-3-yl)phenyl]acetamide]: the midpoint of inhibition, the IC50, lay at 140 nM. Next, `O=C(Cn1c2c(c(-c3cc(Cl)ccc3Cl)cc1=O)C(=O)CC2)Nc1ccc(-c2cc(=O)[nH][nH]2)cc1` [Example 7, 2-[4-(2,5-Dichlorophenyl)-2,5-dioxo-2,5,6,7-tetrahydro-1H-cyclopenta[b]pyridin-1-yl]-N-[4-(5-oxo-2,5-dihydro-1H-pyrazol-3-yl)phenyl]acetamide]: 130 nM. For `N#Cc1ccc(Cl)cc1-c1cc(=O)n(CC(=O)Nc2ccc(-c3noc(=O)[nH]3)cc2)c2c1C(=O)CC2` [Example 13, 2-[4-(5-Chloro-2-cyanophenyl)-2,5-dioxo-2,5,6,7-tetrahydro-1H-cyclopenta[b]pyridin-1-yl]-N-[4-(5-oxo-4,5-dihydro-1,2,4-oxadiazol-3-yl)phenyl]acetamide], the IC50 stood at 34 nM. The result for `O=C(Cn1c2c(c(-c3cc(Cl)ccc3C(F)(F)F)cc1=O)C(=O)CC2)Nc1ccc(-c2cc(=O)[nH][nH]2)cc1` [Example 11, 2-{4-[5-Chloro-2-(trifluoromethyl)phenyl]-2,5-dioxo-2,5,6,7-tetrahydro-1H-cyclopenta[b]pyridin-1-yl}-N -[4-(5-oxo-2,5-dihydro-1H-pyrazol-3-yl)phenyl]acetamide] reads 750 nM.
